Reference: patent US20230322846A9, “NEUROACTIVE STEROIDS AND THEIR METHODS OF USE” (SAGE THERAPEUTICS, INC., priority 2018, published 2023)
pIC50: −log10 of the molar value.

biological target: [35S]-TBPS binding, rat brain cortical membranes; assay: Steroid inhibition of [35S]-TBPS binding; settings: 3 nM [35S]-TBPS, in the presence of 5 mM GABA
In short: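 Rat cortical P2 membranes incubated 90 min at room temperature with 3 nM [35S]-TBPS, […] and test compound (0.5% DMSO final) in NaCl/Na–K phosphate pH 7.4; nonspecific binding with […]. Filter-bound radioactivity counted; IC50 and Imax from nonlinear fits, mean ± SEM.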

| SMILES | pIC50 |
| --- | --- |
| CC[C@@]1(O)CC[C@@]2(C)[C@H](CC[C@@H]3[C@@H]2CC[C@]2(C)[C@@H]([C@@H](C)Cn4nccc4C#N)CC[C@@H]32)C1 [Example 63, 1-((R)-2-((3R,5R,8R,9S,10S,13S,14S,17R)-3-ethyl-3-hydroxy-10,13-dimethylhexadecahydro-1H-cyclopenta[a]phenanthren-17-yl)propyl)-1H-pyrazole-5-carbonitrile] | > 7.00 |
| CC[C@@]1(O)CC[C@@]2(C)[C@H](CC[C@@H]3[C@@H]2CC[C@]2(C)[C@@H]([C@H](C)Cn4nccc4C#N)CC[C@@H]32)C1 [Example 64, 1-((S)-2-((3R,5R,8R,9S,10S,13S,14S,17R)-3-ethyl-3-hydroxy-10,13-dimethylhexadecahydro-1H-cyclopenta[a]phenanthren-17-yl)propyl)-1H-pyrazole-5-carbonitrile] | > 7.00 |
| CCC[C@@]1(O)CC[C@H]2[C@H](CC[C@@H]3[C@@H]2CC[C@]2(C)[C@@H]([C@H](C)Cn4cc(C#N)cn4)CC[C@@H]32)C1 [Example 66, 1-((S)-2-((3R,5R,8R,9R,10S,13S,14S,17R)-3-hydroxy-13-methyl-3-propylhexadecahydro-1H-cyclopenta[a]phenanthren-17-yl)propyl)-1H-pyrazole-4-carbonitrile] | > 7.00 |
| CCOC[C@@]1(O)CC[C@H]2[C@H](CC[C@@H]3[C@@H]2CC[C@]2(C)[C@@H]([C@@H](C)NS(=O)(=O)c4ccc(C#N)cc4)CC[C@@H]32)C1 [Example 67, 4-cyano-N—((R)-1-((3R,5R,8R,9R,10S,13S,14S,17S)-3-(ethoxymethyl)-3-hydroxy-13-methylhexadecahydro-1H-cyclopenta[a]phenanthren-17-yl)ethyl)benzenesulfonamide] | > 7.00 |
| CCOC[C@@]1(O)CC[C@H]2[C@H](CC[C@@H]3[C@@H]2CC[C@]2(C)[C@@H]([C@@H](C)N(C)S(=O)(=O)c4ccc(C#N)cc4)CC[C@@H]32)C1 [Example 68, 4-cyano-N—((R)-1-((3R,5R,8R,9R,10S,13S,14S,17S)-3-(ethoxymethyl)-3-hydroxy-13-methylhexadecahydro-1H-cyclopenta[a]phenanthren-17-yl)ethyl)-N-methylbenzenesulfonamide] | > 7.00 |
| CCOC[C@@]1(O)CC[C@H]2[C@H](CC[C@@H]3[C@@H]2CC[C@]2(C)[C@@H]([C@@H](C)NS(=O)(=O)c4cccc(C#N)c4)CC[C@@H]32)C1 [Example 69] | > 7.00 |
| CCOC[C@@]1(O)CC[C@H]2[C@H](CC[C@@H]3[C@@H]2CC[C@]2(C)[C@@H]([C@@H](C)N(C)S(=O)(=O)c4cccc(C#N)c4)CC[C@@H]32)C1 [Example 70] | > 7.00 |
| CCOC[C@@]1(O)CC[C@H]2[C@H](CC[C@@H]3[C@@H]2CC[C@]2(C)[C@@H]([C@@H](C)NS(=O)(=O)c4cccc(C#N)n4)CC[C@@H]32)C1 [Example 71] | 6.00 to 7.00 |
| CCOC[C@@]1(O)CC[C@H]2[C@H](CC[C@@H]3[C@@H]2CC[C@]2(C)[C@@H]([C@@H](C)NS(=O)(=O)c4ccc(C#N)cn4)CC[C@@H]32)C1 [Example 73] | > 7.00 |
| COC[C@@]1(O)CC[C@H]2[C@H](CC[C@@H]3[C@@H]2CC[C@]2(C)[C@@H]([C@@H](C)NS(=O)(=O)c4cccc(C#N)n4)CC[C@@H]32)C1 [Example 75] | > 7.00 |
| C[C@@]1(O)CC[C@H]2[C@H](CC[C@@H]3[C@@H]2CC[C@]2(C)[C@@H](CC(=O)Nc4ccccc4)CC[C@@H]32)C1 [Example 76, 2-((3R,5R,8R,9R,10S,13R,14S,17R)-3-hydroxy-3,13-dimethylhexadecahydro-1H-cyclopenta[a]phenanthren-17-yl)-N-phenylacetamide] | 6.00 to 7.00 |
| CCOC[C@@]1(O)CC[C@@]2(C)[C@H](CC[C@@H]3[C@@H]2CC[C@]2(C)[C@@H]([C@@H](C)NS(=O)(=O)c4ccc(C#N)cn4)CC[C@@H]32)C1 [Example 77, 5-cyano-N—((R)-1-((3R,5R,8R,9S,10S,13S,14S,17S)-3-(ethoxymethyl)-3-hydroxy-10,13-dimethylhexadecahydro-1H-cyclopenta[a]phenanthren-17-yl)ethyl)pyridine-2-sulfonamide] | > 7.00 |
| CCOC[C@@]1(O)CC[C@@]2(C)[C@H](CC[C@@H]3[C@@H]2CC[C@]2(C)[C@@H]([C@@H](C)N(C)S(=O)(=O)c4ccc(C#N)cn4)CC[C@@H]32)C1 [Example 78, 5-cyano-N—((R)-1-((3R,5R,8R,9S,10S,13S,14S,17S)-3-(ethoxymethyl)-3-hydroxy-10,13-dimethylhexadecahydro-1H-cyclopenta[a]phenanthren-17-yl)ethyl)-N-methylpyridine-2-sulfonamide] | > 7.00 |
| COC[C@@]1(O)CC[C@H]2[C@H](CC[C@@H]3[C@@H]2CC[C@]2(C)[C@@H](CCn4ccc(C#N)n4)CC[C@@H]32)C1 [Example 87, 1-(2-((3R,5R,8R,9R,10S,13R,14S,17R)-3-hydroxy-3-(methoxymethyl)-13-methylhexadecahydro-1H-cyclopenta[a]phenanthren-17-yl)ethyl)-1H-pyrazole-3-carbonitrile] | > 7.00 |
| COC[C@@]1(O)CC[C@H]2[C@H](CC[C@@H]3[C@@H]2CC[C@]2(C)[C@@H](CCn4nccc4C#N)CC[C@@H]32)C1 [Example 88, 1-(2-((3R,5R,8R,9R,10S,13R,14S,17R)-3-hydroxy-3-(methoxymethyl)-13-methylhexadecahydro-1H-cyclopenta[a]phenanthren-17-yl)ethyl)-1H-pyrazole-5-carbonitrile] | > 7.00 |
| CCC[C@@]1(O)CC[C@H]2[C@H](CC[C@@H]3[C@@H]2CC[C@]2(C)[C@@H]([C@@H](C)Nc4ccc(C#N)cn4)CC[C@@H]32)C1 [Example 90, 6-(((R)-1-((3R,5R,8R,9R,10S,13S,14S,17S)-3-hydroxy-13-methyl-3-propylhexadecahydro-1H-cyclopenta[a]phenanthren-17-yl)ethyl)amino)nicotinonitrile] | 6.00 to 7.00 |

| SMILES | pIC50 |
| --- | --- |
| CCC[C@@]1(O)CC[C@H]2[C@H](CC[C@@H]3[C@@H]2CC[C@]2(C)[C@@H]([C@@H](C)Nc4ccc(-n5ccc(C)n5)nc4C)CC[C@@H]32)C1 [Example 91, (3R,5R,8R,9R,10S,13S,14S,17S)-13-methyl-17-((R)-1-((2-methyl-6-(3-methyl-1H-pyrazol-1-yl)pyridin-3-yl)amino)ethyl)-3-propylhexadecahydro-1H-cyclopenta[a]phenanthren-3-ol] | 6.00 to 7.00 |
| COC[C@@]1(O)CC[C@H]2[C@H](CC[C@@H]3[C@@H]2CC[C@]2(C)[C@@H]([C@@H](C)Cn4cc(C#N)cn4)CC[C@@H]32)C1 [Example 92, 1-((R)-2-((3R, 5R, 8R, 9R, 10S, 13S, 14S, 17R)-3-hydroxy-3-(methoxymethyl)-13-methylhexadecahydro-1H-cyclopenta[a]phenanthren-17-yl)propyl)-1H-pyrazole-4-carbonitrile] | > 7.00 |
| C[C@@H](NC(=O)c1ccccn1)[C@H]1CC[C@H]2[C@@H]3CC[C@@H]4C[C@](C)(O)CC[C@@H]4[C@H]3CC[C@]12C [Example 100] | 6.00 to 7.00 |
| C[C@H](NC(=O)c1ccccn1)[C@H]1CC[C@H]2[C@@H]3CC[C@@H]4C[C@](C)(O)CC[C@@H]4[C@H]3CC[C@]12C [Example 101] | 5.00 to 6.00 |
| C[C@H](NC(=O)c1ccccc1F)[C@H]1CC[C@H]2[C@@H]3CC[C@@H]4C[C@](C)(O)CC[C@@H]4[C@H]3CC[C@]12C [Example 102] | 5.00 to 6.00 |
| C[C@@H](NC(=O)c1ccccc1F)[C@H]1CC[C@H]2[C@@H]3CC[C@@H]4C[C@](C)(O)CC[C@@H]4[C@H]3CC[C@]12C [Example 103] | > 7.00 |
| COc1cccc(C(=O)N[C@H](C)[C@H]2CC[C@H]3[C@@H]4CC[C@@H]5C[C@](C)(O)CC[C@@H]5[C@H]4CC[C@]23C)c1 [Example 104] | > 7.00 |
| COc1cccc(C(=O)N[C@@H](C)[C@H]2CC[C@H]3[C@@H]4CC[C@@H]5C[C@](C)(O)CC[C@@H]5[C@H]4CC[C@]23C)c1 [Example 105] | 5.00 to 6.00 |
| COc1ccc(C(=O)N[C@H](C)[C@H]2CC[C@H]3[C@@H]4CC[C@@H]5C[C@](C)(O)CC[C@@H]5[C@H]4CC[C@]23C)cc1 [Example 106] | 6.00 to 7.00 |
| COc1ccc(C(=O)N[C@@H](C)[C@H]2CC[C@H]3[C@@H]4CC[C@@H]5C[C@](C)(O)CC[C@@H]5[C@H]4CC[C@]23C)cc1 [Example 107] | 5.00 to 6.00 |
| C[C@@H](NC(=O)c1ccc(C#N)cc1)[C@H]1CC[C@H]2[C@@H]3CC[C@@H]4C[C@](C)(O)CC[C@@H]4[C@H]3CC[C@]12C [Example 108] | 6.00 to 7.00 |
| C[C@@H](NC(=O)c1cccc(C#N)c1)[C@H]1CC[C@H]2[C@@H]3CC[C@@H]4C[C@](C)(O)CC[C@@H]4[C@H]3CC[C@]12C [Example 109] | > 7.00 |
| C[C@H](NC(=O)c1cccc(C#N)c1)[C@H]1CC[C@H]2[C@@H]3CC[C@@H]4C[C@](C)(O)CC[C@@H]4[C@H]3CC[C@]12C [Example 110] | 5.00 to 6.00 |
| COC[C@@]1(O)CC[C@H]2[C@H](CC[C@@H]3[C@@H]2CC[C@]2(C)[C@@H]([C@@H](C)NC(=O)c4ccc(OC(F)(F)F)cc4)CC[C@@H]32)C1 [Example 111] | > 7.00 |
| COC[C@@]1(O)CC[C@H]2[C@H](CC[C@@H]3[C@@H]2CC[C@]2(C)[C@@H]([C@H](C)NC(=O)c4ccc(OC(F)(F)F)cc4)CC[C@@H]32)C1 [Example 112] | 6.00 to 7.00 |
